The source of these data is patent publication US20260224549A1, “COMPOUNDS, COMPOSITIONS, AND METHODS FOR TREATING, AMELIORATING, AND/OR PREVENTING PAIN” (priority 2023, published 2026).

The conditions of series [1]: cited from earlier work.
Series [2] is described as follows: Hygroscopicity - Dynamic Vapor Sorption (DVS). In kind it is physicochemical. The protocol:
Hygroscopicity—Dynamic Vapor Sorption (DVS)
DVS is a gravimetric technique that measures how quickly and how much of a solvent (water) is sorbed by a sample. The relative humidity or vapor concentration surrounding the sample is varied while the change in mass of the sample is measured. […] The mass values at each relative humidity step are used to generate an isotherm. Isotherms are divided in two components: sorption for increasing humidity steps and desorption for decreasing humidity steps. A plot of kinetic data is also used to show the change in mass and humidity as a function of time.
The samples were analyzed using a TA Q5000 automated dynamic vapor sorption analyzer. The samples were dried at 60° C. over 180 minutes and then cooled to 25° C. with a dry nitrogen purge. The samples were then subjected to 0 to 90% RH, back to 10% RH at 25° C. in 10% RH steps.

A short description of series [3]: Static vapor sorption studies. In kind it is physicochemical. The settings on record: for Est. H2O Content (%) / Wt % Change: ambient temperature, 3 weeks, Form A staged. An excerpt:
Static Vapor Sorption Studies
Static vapor sorption studies were done in hermetic humidity chambers using saturated salts, or environmental humidity chambers to control the temperature and humidity. Data collected during dynamic vapor sorption studies often are not at thermodynamic equilibrium. To gain a better understanding of the water uptake and the critical humidity level of the API, samples of the starting material (i.e., Form A) were monitored in static humidity chambers to allow the sample to equilibrate with atmospheric moisture.
In these studies, water vapor sorption was determined gravimetrically by storing samples in open aluminum dishes. Compound I diphosphate salt lot was used for this study. Samples were stored at 7 different humidity levels at ambient temperature (Table 19). Approximately 50 mg of Form A was staged at each humidity condition. The samples were weighed before placing them in the chamber and then re-weighed after 3 weeks. After re-weighing, the samples were immediately analyzed by XRD to determine whether a change in form had occurred.
The sample stored at 11% RH was an outlier and was therefore omitted from the final isotherm plot. The static isotherm plot is roughly consistent with the DVS isotherm plot (FIG. 12F) with a large moisture uptake at around 40% RH and a maximum uptake between 4 and 5 weight percent.

Series [4] can be described thus: Solubility in water of salts. In kind it is physicochemical.
The nature of series [5]: Thermal and storage stability of salts and forms. In kind it is physicochemical. As to conditions: for stability at ambient conditions: storage. An excerpt:
On the basis of the DSC data, the acetate salt may be a hydrate.
The amorphous form may be obtained by crystallization from anhydrous solvents or by thermal desolvation of the hydrate. In certain embodiments, the preferred polymorph of Compound I diphosphate is Compound I diphosphate monohydrate (Form A): […]

A short description of series [6]: Phase I single ascending dose pharmacokinetics of metabolite Compound II in plasma. It counts as in vivo, human. As to conditions: for AUC(0-t): po; for Tmax: read-out: Tmax, Median.
Description: The study comprised a single ascending dose (SAD), sequential cohort study, incorporating a food effect (FE) evaluation. Up to 40 subjects were to be studied in 5 cohorts (Cohorts A1 to A5), each cohort consisting of 8 subjects.
The actual blood sampling dates and times relative to dosing time were listed by subject and nominal sampling time, with time deviation calculated, for all subjects with available plasma concentration data.
For PK concentration data, the number of non-missing values, number of below limit of quantification (BLQ) values, arithmetic mean, standard deviation, median, minimum, maximum, coefficient of variation (CV %), geometric mean and geometric coefficient of variation (geo CV %) values was presented.
For PK parameter data, the number of non-missing values, arithmetic mean, standard deviation, median, minimum, and maximum values were presented.
Series [7] in a line: Metabolism in liver microsomes and hepatocytes in vitro. In kind it is in vitro ADME. On the technique in general: Liver microsomes are a subcellular fraction often used to study metabolism.
Setting [8] is: human, metabolite after 200 mg DS (Fasted), single oral dose, plasma.
The mark [9] stands for this setting: human, metabolite after 400 mg DS (Fasted), single oral dose, plasma.
Where [10] appears, read: metabolite after 60 mg DS (Fasted), single oral dose, plasma.
Where [11] appears, read: metabolite after 120 mg DS (Fasted), single oral dose, plasma.
[12] abbreviates: metabolite after 200 mg DS (Fasted), single oral dose, plasma.
Where [13] appears, read: metabolite after 400 mg DS (Fasted), single oral dose, plasma.

Entries after “also recorded” stand apart in the source; their conditions may differ. Read-outs that look alike come from different tables or passages of the source.

What is called pKa is the negative logarithm of the acid dissociation constant. Usually Cmax stands for the peak of the concentration-time curve. As a reminder, the Tmax is the time at which the peak concentration occurs.

Regarding `O=S(=O)(O)CCS(=O)(=O)O` [1,2-Ethanedisulfonic acid], the pKa in series [1] (first value listed) is on record as −2.1; in series [1] (second value listed), −1.5.
For `O=S(=O)(O)c1cccc2c(S(=O)(=O)O)cccc12` [1,5-Naphthalenedisulfonic acid], the pKa in series [1] (first value listed) is −3.4; in series [1] (second value listed), −2.6.
On to `CC1(C)C2CCC1(CS(=O)(=O)O)C(=O)C2` (centres unmarked) [Camphorsulfonic acid], for which the pKa in series [1] (first value listed) is on record as 2.2.
For the compound `CN(C)C[C@H]1CN(CCc2ccsc2)CC[C@]1(O)c1cccc(C(N)=O)c1` [Compound I diphosphate, 3-(3S,4R)-3-((dimethylamino)methyl)-4-hydroxy-1-(2-(thiophen-3-yl)ethyl)piperidin-4-yl-benzamide bisphosphate], the hygroscopicity entry in series [2] (in words) is “moderately hygroscopic”. The “Est. H2O Content (%)” value was 3.1% in series [3] (11% relative humidity); 0.8% in series [3] (22% relative humidity); 1.8% in series [3] (33% relative humidity); 3.9% in series [3] (43% relative humidity); 4.1% in series [3] (75% relative humidity); 4.4% in series [3] (84% relative humidity). For the same compound, the “Est. H2O Content (%)” value in series [3] (97% relative humidity) is 4.8%. For the same compound, the “Wt % Change” value was −0.2 Wt % in series [3] (11% relative humidity); −2.5 Wt % in series [3] (22% relative humidity); −1.5 Wt % in series [3] (33% relative humidity); “+0.6 Wt %” in series [3] (43% relative humidity); “+0.8 Wt %” in series [3] (75% relative humidity); “+1.1 Wt %” in series [3] (84% relative humidity). Further, the “Wt % Change” value in series [3] (97% relative humidity) is recorded as “+1.5 Wt %”. Besides, the aqueous solubility entry in series [4] is listed as “high aqueous solubility”. Also, the “solubility in unbuffered water” value in series [4] (unbuffered water) was “high solubility”. Moreover, the “stability (thermal, chemical)” value in series [5] (in words, listed as diphosphate salt) was “more stable; also recorded: improved stability (thermally and chemically) over the other salts”. In addition, in series [5] (listed as diphosphate salt), the “stability at ambient conditions” value is given as “stable to storage under ambient conditions”.
With `CNC[C@H]1CN(CCc2ccsc2)CC[C@]1(O)c1cccc(C(N)=O)c1` [Compound II, 3-(3S, 4R)-3-((methylamino)methyl)-4-hydroxy-1-(2-(thiophen-3-yl)ethyl)piperidin-4-yl-benzamide], the “MRAUC0-t, metabolite ratio (MEB-373/MEB1170 AUC0-t values), Mean” value in series [6] (200 mg DS (Fasted), single oral dose, plasma) worked out at 0.0231; in series [6] (400 mg DS (Fasted), single oral dose, plasma), 0.0276. Also, the half-life in series [6] (human, plasma, oral, 400 mg dose group (n=5), read-out: mean plasma t1/2 (converted)) is 0.902 h; in series [6] (human, plasma, oral, one individual at 200 mg, read-out: t1/2 (converted)), 2 h; in series [6] (human, metabolite after 400 mg DS (Fasted), single oral dose, plasma, read-out: t1/2 (terminal plasma half-life), Mean (converted)), 0.902 h. Also, the AUC(0-t) in series [6] (human, plasma, 200 mg, metabolite after 200 mg DS (Fasted), single oral dose, plasma, read-out: AUC0-t (zero to the time of the last quantifiable concentration), Mean) worked out at 8.77 ng·h/mL; in series [6] (human, plasma, 400 mg, metabolite after 400 mg DS (Fasted), single oral dose, plasma, read-out: AUC0-last (zero to 24 hours postdose), Mean) it was 27.3 ng·h/mL; in series [6] (human, plasma, 400 mg, metabolite after 400 mg DS (Fasted), single oral dose, plasma, read-out: AUC0-t (zero to the time of the last quantifiable concentration), Mean), 21.1 ng·h/mL. In addition, the Cmax in series [6] (setting [8]) worked out at 7.91 ng/mL; in series [6] (setting [9]), 12.2 ng/mL. Moreover, the Tmax stood at 2.26 h in series [6] (setting [8]) and 2 h in series [6] (setting [9]). Moreover, the AUC(0-inf) in series [6] (human, metabolite after 400 mg DS (Fasted), single oral dose, plasma, read-out: AUC0-inf, Mean) is 28.7 ng·h/mL. Also, the “systemic exposures relative to Compound I” value in series [6] (in vivo) is reported as “very low relative to Compound I”. The “Tlast, Max” value in series [6] (setting [10]) is listed as 2.50 h; in series [6] (setting [11]), 4.00 h; in series [6] (setting [12]), 4.00 h; in series [6] (setting [13]), 4.00 h. Also, the “Tlast, Min” value in series [6] (setting [10]), in series [6] (setting [11]), in series [6] (setting [12]) and in series [6] (setting [13]) was 2.50 h throughout. Also, the “Tmax, Max” value in series [6] (setting [11]), in series [6] (setting [12]) and in series [6] (setting [13]) was 2.50 h each time. Further, the “Tmax, Min” value is recorded as 2.50 h in series [6] (setting [11]), 1.00 h in series [6] (setting [12]) and 1.50 h in series [6] (setting [13]). The “Tlast (time of last measurable concentration), Median” value in series [6] (setting [12]) turned out to be 3.25 h; in series [6] (setting [13]) it was 4.00 h. The plasma concentrations result in series [6] (most subjects at doses of 20, 60, and 120 (fed) mg) is reported as “below the limit of assay quantitation”. Further, in series [7], the “metabolite formation in vitro” value is on record as “predominant metabolite of Compound I”.
With `CCS(=O)(=O)O` [Ethanesulfonic acid], the pKa in series [1] (first value listed) is reported as −2.1.
`CN(C)C[C@H]1CN(CCc2ccsc2)CC[C@]1(O)c1cccc(C(N)=O)c1` [Form A] showed a maximum water/moisture uptake in series [2] (at 90% RH) of 4.15 wt %. In series [3] (XRD after storage at different humidity levels), the “change of solid state form with humidity” value was “did not change at any humidity level; also recorded: retains its structure in both low and high humidity environments”. Also, the “relative humidity of large moisture uptake” value in series [3] (static isotherm) was “around 40 % RH”. Besides, in series [5], the “heating withstood by the hydrate” value was ~ 70 °C and the “stability at ambient conditions” value is reported as “stable at ambient conditions”.
In the case of `O=C(O)CNC(=O)c1ccccc1` [Hippuric acid], the pKa in series [1] (first value listed) is on record as 3.6.
Regarding `O=S(=O)(O)c1ccc2ccccc2c1` [Naphthalene-2-sulfonic acid], the pKa in series [1] (first value listed) is listed as 0.2.
With `CCCCCCCCCCCCCCCCCC(=O)O` [Stearic acid], in series [1] (first value listed), the pKa was 4.9.
